From patent US20230014445A1, “ALLOSTERIC CHROMENONE INHIBITORS OF PHOSPHOINOSITIDE 3-KINASE (PI3K) FOR THE TREATMENT OF DISEASE” (Petra Pharma Corporation, priority 2021, published 2023) come the findings set out here.

The term IC50 denotes the point on the concentration scale where inhibition reaches its midpoint. Lower therefore signals higher potency.

SMILES strings stand for the structures.

Test [1] addresses T1, human full length PIK3KA Wild-type (p110α/p85α complex) (Homo sapiens, UniProt P42336).
T1 construct: Recombinant, catalytically active human full length PIK3KA Wild-type and H1047R mutant were purchased; 6xHis (N); purchased EMD Millipore Sigma 14-602M
Briefly: PI3K-Alpha Kinase (PIK3CA) biochemical activity, wild-type (ADP-Glo). The following applies: 20 uM ATP. From the text: (§1) PI3K-Alpha Kinase (PIK3CA) Activity, Wild-Type and H1047R Mutant and Determining IC50 Values for Inhibitors
(§2) Recombinant, catalytically active human full length PIK3KA Wild-type and H1047R mutant were purchased as 1:1 complex of N-terminal 6×his tagged p110α (catalytic) and untagged p85α, (regulatory subunit) from EMD Millipore Sigma (cat. no. 14-602M and 14-792M, respectively). PIP2diC8 (Avanti Polar Lipids Inc., cat. no. 850185) or Soy PI (Avanti Polar Lipids Inc., cat. No. 840044P) was used as lipid substrate. PIP2diC8 or PI lyophilized powder was dissolved in milliQ water to a concentration of 1 mM just before use. 10 mM stock compounds in DMSO were serially diluted 1:3 to generate a 10-point curve and plated using an acoustic liquid handler system (Echo 550 series instrument, Labcyte). A 10× intermediate compound plate (200 uM starting compound concentration and 10% DMSO) was prepared before starting the reaction. A typical reaction mixture (50 uL) comprised 40 mM HEPES buffer, pH 7.4, 25 mM MgCl2, 0.01% v/v triton-X-100, 1% v/v DMSO, 20 mM NaCl, 1-5 nM WT or H1047R PI3K protein, 20 uM ATP, and 50 uM PIP2diC8 or Soy PI. 1% DMSO buffer alone without test compound was employed as MAX control (full activity in the absence of any inhibitor), and no enzyme control was used to determine the level of background Adenosine 5′-diphosphate (ADP) (MIN control). First, Wild-type (WT) and H1047R mutant protein in kinase buffer with all components except ATP were incubated with or without compound at 27° C. for 1 h. After the pre-incubation, the reaction was initiated by the addition of […] (20 uM final concentration). The reaction was allowed to proceed until about 10% conversion of ATP (2 uM ADP) at 27° C. After that time, 5 uL of reaction was mixed with 5 uL of ADP-Kinase Glo Reagent (ADP-Glo Kinase assay kit, Promega cat. no. V9102) supplemented with MgCl2 10 mM to stop the reaction and deplete the remaining ATP for 40 min at room temperature. Then, 10 uL of Kinase Detection Reagent (ADP-Glo Kinase assay kit, Promega cat. no. V9102) was added to simultaneously convert ADP to ATP and allow the newly synthesized ATP to be measured using a luciferase/luciferin reaction. After 30 min at room temperature the light generated was measured using a luminometer (EnVision plate reader, Perkin Elmer). Process data through Genedata-Screener tool. Relative IC50 values are determined using luminescence units by calculating percent inhibition with respect to on-plate “MIN” and “MAX” controls. Data was analyzed using a 4-parameter nonlinear logistic equation (four-parameter logistic concentration-response curve):
(§3) Y=bot+[(top−bot)/1+(x/IC50)slope]
(§4) where Y=% inhibition, X=concentration yielding y % inhibition, Bottom=minimum value of y attained by curve, Top=maximum value of y attained by curve and Slope=steepness of curve at IC50.
(§5) % Inh=[(median Max−x/median Max−median Min)]·100
(§6) IC50: concentration of compound that reduces a given response (ligand binding, enzyme response) by 50%. IC50 relative: concentration giving half the compound's maximum response.
(§7) For IC50 values shown in Table A, “A” means IC50<0.5 μM; “B” means IC50 ranging between 0.5 μM and 1.0 μM; “C” means IC50 ranging between 1 μM and 5 μM; “D” means IC50 ranging between 5 μM and 10 μM; “E” means IC50>10 μM.
(In general: In ADP-Glo the light output rises with the ADP produced.)

The target in test [2] is T2, human full length PIK3KA H1047R mutant (p110α/p85α complex) (Homo sapiens, UniProt P42336, H1047R).
T2 construct: Recombinant, catalytically active human full length PIK3KA Wild-type and H1047R mutant were purchased; 6xHis (N); purchased EMD Millipore Sigma 14-792M
Nature of the test: PI3K-Alpha Kinase (PIK3CA) biochemical activity, H1047R mutant (ADP-Glo). The following applies: 20 uM ATP.
Description: as §1, §2, §3, §4, §5, §6, §7

T2 sequence (P42336 whole entry H1047R): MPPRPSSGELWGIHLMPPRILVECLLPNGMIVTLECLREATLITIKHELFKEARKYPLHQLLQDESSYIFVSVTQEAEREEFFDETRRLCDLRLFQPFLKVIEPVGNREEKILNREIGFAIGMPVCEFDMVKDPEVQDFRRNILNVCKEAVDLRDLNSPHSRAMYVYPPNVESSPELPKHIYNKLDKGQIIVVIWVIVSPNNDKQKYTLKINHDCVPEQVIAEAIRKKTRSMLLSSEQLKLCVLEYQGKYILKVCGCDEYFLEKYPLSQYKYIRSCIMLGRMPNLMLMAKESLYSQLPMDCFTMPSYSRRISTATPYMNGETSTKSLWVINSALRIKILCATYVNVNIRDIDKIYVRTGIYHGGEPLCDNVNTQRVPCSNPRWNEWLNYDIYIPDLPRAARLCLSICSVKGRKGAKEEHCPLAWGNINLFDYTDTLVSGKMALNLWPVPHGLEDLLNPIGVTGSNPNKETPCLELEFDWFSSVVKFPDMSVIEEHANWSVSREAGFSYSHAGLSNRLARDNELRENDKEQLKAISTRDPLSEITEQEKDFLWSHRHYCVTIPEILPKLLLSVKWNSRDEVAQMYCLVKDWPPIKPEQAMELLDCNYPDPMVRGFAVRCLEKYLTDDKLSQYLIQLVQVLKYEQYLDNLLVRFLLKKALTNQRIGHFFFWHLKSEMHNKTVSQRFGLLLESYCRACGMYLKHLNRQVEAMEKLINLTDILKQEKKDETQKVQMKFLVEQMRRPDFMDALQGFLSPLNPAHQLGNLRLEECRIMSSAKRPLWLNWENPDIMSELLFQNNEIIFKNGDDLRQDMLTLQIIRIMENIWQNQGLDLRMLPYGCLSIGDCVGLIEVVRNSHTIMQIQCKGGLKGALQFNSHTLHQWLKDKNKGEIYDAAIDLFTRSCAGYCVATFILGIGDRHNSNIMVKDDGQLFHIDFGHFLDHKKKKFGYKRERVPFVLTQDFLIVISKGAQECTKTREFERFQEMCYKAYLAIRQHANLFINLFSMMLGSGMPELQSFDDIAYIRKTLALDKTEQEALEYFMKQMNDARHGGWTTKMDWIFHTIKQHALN
T2 sequence (P27986 whole entry partner): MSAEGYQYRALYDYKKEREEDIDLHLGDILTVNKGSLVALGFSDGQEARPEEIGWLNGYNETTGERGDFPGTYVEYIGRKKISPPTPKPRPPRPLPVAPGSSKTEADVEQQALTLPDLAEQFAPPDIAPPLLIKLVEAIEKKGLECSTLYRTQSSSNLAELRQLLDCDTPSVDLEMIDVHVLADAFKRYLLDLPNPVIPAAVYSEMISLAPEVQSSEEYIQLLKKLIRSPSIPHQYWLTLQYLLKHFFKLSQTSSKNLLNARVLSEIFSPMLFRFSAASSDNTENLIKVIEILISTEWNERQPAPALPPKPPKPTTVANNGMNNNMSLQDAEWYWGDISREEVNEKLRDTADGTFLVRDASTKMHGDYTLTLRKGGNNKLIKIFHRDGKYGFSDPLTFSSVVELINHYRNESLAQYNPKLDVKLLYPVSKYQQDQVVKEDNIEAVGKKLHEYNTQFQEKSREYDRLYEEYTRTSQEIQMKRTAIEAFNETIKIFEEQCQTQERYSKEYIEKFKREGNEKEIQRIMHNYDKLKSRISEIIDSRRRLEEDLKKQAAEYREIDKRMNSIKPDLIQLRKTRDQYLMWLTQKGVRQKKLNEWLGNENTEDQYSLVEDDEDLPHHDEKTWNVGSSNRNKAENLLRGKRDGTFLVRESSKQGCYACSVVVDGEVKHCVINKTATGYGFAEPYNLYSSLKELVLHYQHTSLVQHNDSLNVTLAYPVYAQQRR

As to `Cc1cc(C(C)Nc2ccccc2C(=O)O)c2oc(-c3cnc(C)nc3)cc(=O)c2c1` (single isomer, unassigned; isomer 1) [Example 32, 2-[1-[6-Methyl-2-(2-methylpyrimidin-5-yl)-4-oxo-chromen-8-yl]ethylamino]benzoic acid, Isomer 1], the figures for the IC50 in test [1] (PIP2diC8 lipid substrate) and in test [2] (PIP2diC8 lipid substrate) were 5 to 10 µM and below 0.5 µM, respectively.

Turning to `Cc1cc(C(C)Nc2ccccc2C(=O)O)c2oc(-c3ncccn3)c(C)c(=O)c2c1` (single isomer, unassigned; isomer 1) [Example 34, 2-[1-(3,6-Dimethyl-4-oxo-2-pyrimidin-2-yl-chromen-8-yl)ethylamino]benzoic acid, Isomer 1], the IC50 in test [1] (Soy PI lipid substrate) was 1 to 5 µM; in test [2] (Soy PI lipid substrate), below 0.5 µM.

On to `CC(Nc1ccc(Cl)nc1C(=O)O)c1cc(C(F)(F)F)cc2c(=O)cc(-c3ccccn3)oc12` (single isomer, unassigned; isomer 1) [Example 62, 6-Chloro-3-[1-[4-oxo-2-(2-pyridyl)-6-(trifluoromethyl)chromen-8-yl]ethylamino]pyridine-2-carboxylic acid, Isomer 1], for which the IC50 in test [1] (Soy PI lipid substrate) was 5 to 10 µM; in test [2] (Soy PI lipid substrate) it was below 0.5 µM.

Regarding `Cc1cc(C(C)Nc2ccc(Cl)c(F)c2C(=O)O)c2oc(-c3ccccn3)cc(=O)c2c1` (single isomer, unassigned; isomer 1) [Example 78, 3-Chloro-2-fluoro-6-[1-[6-methyl-4-oxo-2-(2-pyridyl)chromen-8-yl]ethylamino]benzoic acid, Isomer 1], the IC50 is 5 to 10 µM in test [1] (Soy PI lipid substrate) and below 0.5 µM in test [2] (Soy PI lipid substrate).

With `CC(Nc1ccc(Cl)nc1C(=O)O)c1cc(C(F)(F)F)cc2c(=O)cc(-c3cnn(-c4ccc(C#N)cc4)c3)oc12` (single isomer, unassigned; isomer 1) [Example 96, 6-Chloro-3-[1-[2-[1-(4-cyanophenyl)pyrazol-4-yl]-4-oxo-6-(trifluoromethyl)chromen-8-yl]ethylamino]pyridine-2-carboxylic acid, Isomer 1], the figures for the IC50 in test [1] (Soy PI lipid substrate) and in test [2] (Soy PI lipid substrate) were 1 to 5 µM and below 0.5 µM, respectively.

As to `CC(Nc1ccccc1C(=O)O)c1cc(C(F)(F)F)cc2c(=O)cc(-c3cnn(-c4ccc(C#N)cc4)c3)oc12` (single isomer, unassigned; isomer 1) [Example 99, 2-[1-2-[1-(4-Cyanophenyl)pyrazol-4-yl]-4-oxo-6-(trifluoromethyl)chromen-8-yl]ethylamino]benzoic acid, Isomer 1], the concentration for half-maximal inhibition (IC50) fell in the range of 1 to 5 µM in test [1] (Soy PI lipid substrate) and 0.5 to 1 µM in test [2] (Soy PI lipid substrate).

As to `Cc1cc(C(C)Nc2ccccc2C(=O)O)c2oc(-c3ncccn3)cc(=O)c2c1` (single isomer, unassigned; isomer 2) [Example 3, 2-[1-(6-Methyl-4-oxo-2-pyrimidin-2-yl-chromen-8-yl)ethylamino]benzoic acid, Isomer 2], the IC50 in test [1] (Soy PI lipid substrate) was above 10 µM; in test [2] (Soy PI lipid substrate), below 0.5 µM.

As for `Cc1cc(C(C)Nc2ccccc2C(=O)O)c2oc(-c3cccnc3)cc(=O)c2c1` (single isomer, unassigned; isomer 2) [Example 14, 2-[1-[6-Methyl-4-oxo-2-(3-pyridyl)chromen-8-yl]ethylamino]benzoic acid, Isomer 2], the IC50 in test [1] (Soy PI lipid substrate) was 1 to 5 µM; in test [2] (Soy PI lipid substrate), below 0.5 µM.

Turning to `Cc1cc(C(C)Nc2ccccc2C(=O)O)c2oc(-c3cnccn3)cc(=O)c2c1` (single isomer, unassigned; isomer 2) [Example 16, 2-[1-(6-Methyl-4-oxo-2-pyrazin-2-yl-chromen-8-yl)ethylamino]benzoic acid, Isomer 2], the IC50 in test [1] (PIP2diC8 lipid substrate) and in test [2] (PIP2diC8 lipid substrate) was above 10 µM throughout.

With `Cc1cc(C(C)Nc2ccccc2C(=O)O)c2oc(-c3ccccn3)cc(=O)c2c1` (single isomer, unassigned; isomer 2) [Example 18, 2-[1-[6-Methyl-4-oxo-2-(2-pyridyl)chromen-8-yl]ethylamino]benzoic acid, Isomer 2], the IC50 in test [1] (PIP2diC8 lipid substrate) and in test [2] (PIP2diC8 lipid substrate) was above 10 µM each time.

On to `COc1ccc(-c2cc(=O)c3cc(C)cc(C(C)Nc4ccccc4C(=O)O)c3o2)cn1` (single isomer, unassigned; isomer 2) [Example 20, 2-[1-[2-(6-Methoxy-3-pyridyl)-6-methyl-4-oxo-chromen-8-yl]ethylamino]benzoic acid, Isomer 2], for which the IC50 in test [1] (Soy PI lipid substrate) was 1 to 5 µM; in test [2] (Soy PI lipid substrate), below 0.5 µM.

For `Cc1cc(C(C)Nc2ccccc2C(=O)O)c2oc(-c3cnc(C4CC4)nc3)cc(=O)c2c1` (single isomer, unassigned; isomer 2) [Example 26, 2-[1-[2-(2-Cyclopropylpyrimidin-5-yl)-6-methyl-4-oxo-chromen-8-yl]ethylamino]benzoic acid, Isomer 2], the IC50 is 5 to 10 µM in test [1] (Soy PI lipid substrate) and below 0.5 µM in test [2] (Soy PI lipid substrate).

Turning to `Cc1cc(C(C)Nc2ccccc2C(=O)O)c2oc(-c3ccc(OC(C)C)nc3)cc(=O)c2c1` (single isomer, unassigned; isomer 2) [Example 31, 2-[1-[2-(6-Isopropoxy-3-pyridyl)-6-methyl-4-oxo-chromen-8-yl]ethylamino]benzoic acid, Isomer 2], the IC50 is 1 to 5 µM in test [1] (PIP2diC8 lipid substrate) and below 0.5 µM in test [2] (PIP2diC8 lipid substrate).

As for `Cc1cc(C(C)Nc2ccccc2C(=O)O)c2oc(-c3ccc(C(F)(F)F)nc3)cc(=O)c2c1` (single isomer, unassigned; isomer 2) [Example 38, 2-[1-[6-Methyl-4-oxo-2-[6-(trifluoromethyl)-3-pyridyl]chromen-8-yl]ethylamino]benzoic acid, Isomer 2], the IC50 is above 10 µM in test [1] (Soy PI lipid substrate) and below 0.5 µM in test [2] (Soy PI lipid substrate).

Turning to `Cc1cc(C(C)Nc2ccccc2C(=O)O)c2oc(-c3ccc(S(C)(=O)=O)nc3)cc(=O)c2c1` (single isomer, unassigned; isomer 2) [Example 40, 2-[1-[6-Methyl-2-(6-methylsulfonyl-3-pyridyl)-4-oxo-chromen-8-yl]ethylamino]benzoic acid, Isomer 2], the IC50 in test [1] (Soy PI lipid substrate) is above 10 µM; in test [2] (Soy PI lipid substrate), below 0.5 µM.

Take `Cc1cc(C(C)Nc2ccccc2C(=O)O)c2oc(-c3cnn(-c4cccnc4)c3)cc(=O)c2c1` (single isomer, unassigned; isomer 2) [Example 50, 2-[1-[6-Methyl-4-oxo-2-[1-(3-pyridyl)pyrazol-4-yl]chromen-8-yl]ethylamino]benzoic acid, Isomer 2]: the IC50 in test [1] (Soy PI lipid substrate) is 1 to 5 µM; in test [2] (Soy PI lipid substrate) it was below 0.5 µM.

On to `COC(=O)c1ccccc1NC(C)c1cc(C)cc2c(=O)cc(-c3c[nH]c(=O)cn3)oc12` (single isomer, unassigned; isomer 2) [Example 56, Methyl 2-[1-[6-methyl-4-oxo-2-(6-oxo-1H-pyrazin-3-yl)chromen-8-yl]ethylamino]benzoate, Isomer 2], for which the IC50 was above 10 µM in test [1] (Soy PI lipid substrate) and 1 to 5 µM in test [2] (Soy PI lipid substrate).

Turning to `Cc1cc(C(C)Nc2ccccc2C(=O)O)c2oc(-c3cccc(C(F)F)n3)cc(=O)c2c1` (single isomer, unassigned; isomer 2) [Example 71, 2-[1-[2-[6-(Difluoromethyl)-2-pyridyl]-6-methyl-4-oxo-chromen-8-yl]ethylamino]benzoic acid, Isomer 2], the IC50 in test [1] (Soy PI lipid substrate) is 5 to 10 µM; in test [2] (Soy PI lipid substrate), below 0.5 µM.

Regarding `Cc1cc(C(C)Nc2ccccc2C(=O)O)c2oc(-c3nnc(-c4ccc(C#N)cc4)o3)cc(=O)c2c1` (single isomer, unassigned; isomer 2) [Example 90, 2-[1-[2-[5-(4-Cyanophenyl)-1,3,4-oxadiazol-2-yl]-6-methyl-4-oxo-chromen-8-yl]ethylamino]benzoic acid, Isomer 2], the results for the IC50 in test [1] (Soy PI lipid substrate) and in test [2] (Soy PI lipid substrate) were above 10 µM and below 0.5 µM, respectively.
